pIC50: −log10 of the molar value.
Legend:
[1] = target: T1, Prostaglandin G/H synthase 2 (Homo sapiens, UniProt P35354); assay: Inhibition of COX2 (unknown origin)
T1 sequence (P35354 whole entry): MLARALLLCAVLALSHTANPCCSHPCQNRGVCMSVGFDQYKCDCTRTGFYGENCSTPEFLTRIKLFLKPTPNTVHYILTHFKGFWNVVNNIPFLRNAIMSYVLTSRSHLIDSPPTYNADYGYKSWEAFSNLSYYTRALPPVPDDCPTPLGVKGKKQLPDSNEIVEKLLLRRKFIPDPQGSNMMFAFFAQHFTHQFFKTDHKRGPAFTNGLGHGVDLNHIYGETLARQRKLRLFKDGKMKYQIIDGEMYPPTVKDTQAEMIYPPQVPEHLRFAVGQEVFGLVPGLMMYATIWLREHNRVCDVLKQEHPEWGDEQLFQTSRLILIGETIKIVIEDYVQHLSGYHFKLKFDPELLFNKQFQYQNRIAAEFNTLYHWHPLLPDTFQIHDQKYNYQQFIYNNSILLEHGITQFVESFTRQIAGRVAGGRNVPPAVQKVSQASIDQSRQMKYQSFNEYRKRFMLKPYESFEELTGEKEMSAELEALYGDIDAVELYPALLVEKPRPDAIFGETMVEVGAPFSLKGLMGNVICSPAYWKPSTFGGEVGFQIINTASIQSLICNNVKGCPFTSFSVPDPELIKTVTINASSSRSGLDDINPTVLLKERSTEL

[2] = target: Prostaglandin G/H synthase 1 (Homo sapiens, UniProt P23219); assay: Inhibition of COX1 (unknown origin)
Sequence of Prostaglandin G/H synthase 1 (P23219 whole entry): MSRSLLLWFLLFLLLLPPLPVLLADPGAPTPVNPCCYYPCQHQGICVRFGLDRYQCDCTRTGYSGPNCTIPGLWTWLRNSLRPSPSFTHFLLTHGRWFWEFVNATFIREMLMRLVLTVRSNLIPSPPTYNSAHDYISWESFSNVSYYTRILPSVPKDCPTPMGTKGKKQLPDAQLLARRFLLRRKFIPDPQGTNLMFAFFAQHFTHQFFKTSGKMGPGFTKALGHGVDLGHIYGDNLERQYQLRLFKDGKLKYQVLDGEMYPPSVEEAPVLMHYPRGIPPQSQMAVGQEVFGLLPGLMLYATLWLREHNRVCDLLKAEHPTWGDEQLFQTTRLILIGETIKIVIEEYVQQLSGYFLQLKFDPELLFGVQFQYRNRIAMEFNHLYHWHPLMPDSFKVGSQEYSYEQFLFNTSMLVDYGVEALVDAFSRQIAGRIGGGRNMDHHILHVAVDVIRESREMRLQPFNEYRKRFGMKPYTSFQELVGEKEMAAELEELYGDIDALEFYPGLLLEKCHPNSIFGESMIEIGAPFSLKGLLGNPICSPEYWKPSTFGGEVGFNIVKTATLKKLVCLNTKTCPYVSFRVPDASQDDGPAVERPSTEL

SMILES | pIC50 [1] | pIC50 [2]
COc1ccc(N2CCN(CC3=NO[C@@H]4CCCC[C@@H]4[C@H]3c3ccccc3)CC2)cc1 | 5.74 | 4.45
Fc1ccc2c(C3CCN(CC4=NO[C@@H]5CCCC[C@@H]5[C@H]4c4ccccc4)CC3)noc2c1 | 5.33 | 4.37
CC1(C)CC(c2ccc(Cl)cc2)C(Cn2c3ccccc3c3ccccc32)=NO1 (stereo not given) | 5.41 | 4.39
CC1(C)CC(c2ccc(Cl)cc2)C(CN2CCC(c3noc4cc(F)ccc34)CC2)=NO1 (stereo not given) | 5.39 | 4.40
COc1ccc(N2CCN(CC3=NOC(C)(C)CC3c3ccccc3)CC2)cc1 (stereo not given) | 5.59 | 4.30
CC1(C)CC(c2ccccc2)C(CN2CCN(c3cccc(Cl)c3Cl)CC2)=NO1 (stereo not given) | 5.17 | 4.26

Further lines, results first:

pIC50 [1] | pIC50 [2] | SMILES
5.77 | 4.39 | COc1ccc([C@H]2C(CN3CCN(c4ccc(OC)cc4)CC3)=NO[C@@H]3CCCC[C@H]23)cc1
5.00 | 4.22 | c1ccc([C@H]2C(Cn3c4ccccc4c4ccccc43)=NO[C@@H]3CCCC[C@H]23)cc1
5.23 | 4.29 | COc1ccc([C@H]2C(Cn3c4ccccc4c4ccccc43)=NO[C@@H]3CCCC[C@H]23)cc1
4.98 | 4.40 | CC1(C)CC(c2ccccc2)C(CN2CCC(c3noc4cc(F)ccc34)CC2)=NO1 (stereo not given)

— ChEMBL document CHEMBL3596089, “Synthesis and characterization of novel oxazines and demonstration that they specifically target cyclooxygenase 2” (Bioorg Med Chem Lett, 2015)
